Series [1] in a line: Kinetic test (plasma concentration after oral or intravenous administration). The conditions noted are these: rat, SD type male rats, fasted overnight. In kind it is in vivo. The procedure: The test compound (the compound of Example 1) was administered orally or intravenously to SD type male rats (7-10 weeks old, 200-400 g) which had abstained from food overnight, and about 100 μL of blood was collected from a caudal vein using a heparinized capillary tube at a predetermined time. The blood was centrifuged (4° C., 6000 rpm, 10 minutes), and plasma was obtained. Three times the amount of ethanol (containing an internal reference) was added to the plasma, stirred, left for 20 minutes at −20° C., and centrifuged (4° C., 10,000 rpm, 10 minutes). The supernatant liquid was analyzed by LC/MS/MS, and the plasma concentration was measured by the relative calibration curve method.

A short description of series [2]: Brain/cerebrospinal fluid activity test. In kind it is in vivo, rat. The conditions noted are these: SD type male rats, 2 hours after oral administration (10 mg/kg); for concentration at 2 h: rat. Here is the method: The test compound (the compound of Example 1) was administered orally or intravenously to SD type male rats (7-10 weeks old, 200-400 g), and exsanguination was performed from the abdominal aorta under ether anesthesia using a heparin treatment syringe at a predetermined time. The skin at the back of the head was cut open, pierced with a 30G dental needle between the cervical vertebrae, and inserted into the subarachnoid space. 50-100 μL of cerebrospinal fluid was extracted by a 1 mL syringe via a tube connected to the 30G needle, and the brain was extracted. A blood sample was centrifuged (4° C., 6000 rpm, 10 minutes), and three times the amount of ethanol (containing an internal reference) was added to the plasma and stirred. 2 mL of water was added to a brain sample, homogenized, a part was removed, and three times the amount of ethanol (containing an internal reference) was added and stirred. The cerebrospinal fluid was taken, three times the amount of ethanol (containing an internal reference) was added, and stirred. The above sample was left at −20° C. for 20 minutes, centrifuged (4° C., 12,000 g, 10 minutes), the supernatant liquid was analyzed by LC/MS/MS, and the concentration in plasma, brain and cerebrospinal fluid was measured by the relative calibration curve method.

For another series, the target named is T1, histamine H3 receptor (Rattus norvegicus, UniProt Q9QYN8).
T1 construct: from tissue; host or cells: living male SD rat (brain, third ventricle agonist administration)
As to the kind of experiment: Antagonism test of drinking behavior induced by R-α-methylhistamine, a histamine H3 receptor selective agonist. In kind it is in vivo. The conditions noted are these: male SD rat, 10 mg/kg oral 2 hours before R-α-methylhistamine, measured 1 hour after. Here is the method:
Under ketamine/xylazine anaesthesia (74 mg/kg and 11 mg/kg intraperitoneal single-dose administration), a chronic guide cannula (26 gauge, length 11 mm) was inserted in the ventriculus tertius of a male SD rat (7-10 weeks old, 200-300 g) using a brain stereotaxis apparatus, and fixed by dental resin. The position of the tip of the guide cannula was 2.2 mm back from the bregma, and at a depth of 8 mm from the skull surface on the median line. After about 1 week convalescence, R-α-methylhistamine (0.3 μg/1 μL/head, 30% propylene glycol solution) was administered to the ventriculus tertius. The test compound (the compound of Example 1) suspended in 0.5% methylcellulose aqueous solution was administered orally 2 hours before the R-α-methylhistamine administration, and the drinking water amount was measured 1 hour after R-α-methylhistamine administration.

Series [3] addresses T2, human histamine H3 receptor (Homo sapiens, UniProt Q9Y5N1).
T2 construct: expressed in transfected cells; host or cells: HEK293 and CHO-K1
As to the kind of experiment: Histamine analog coupling inhibition test. The class given is binding. The text has this:
A cDNA sequence [International Patent Application WO00/3916 Specification No. 4] which encodes human histamine H3 receptor was cloned using the expression vectors pCR2.1, pEF1x (product of Invitrogen), and pCI-neo (product of Promega Inc.). The expression vector obtained was transfected to the host cells, HEK293 and CHO-K1 (American type culture collection), using the cationic lipid method [Proceedings of the National Academy of Sciences of the United States of America, Vol. 84, p. 7413 (1987), and histamine H3 receptor expression cells were thus obtained.
A film preparation made from the cells which represented the histamine H3 receptor, the test compound (the compound of Example 1) and 20,000 cpm of [3H]N-α-methylhistamine (product of NEN) were incubated in an assay buffer solution (50 mM Tris buffer solution, pH 7.4) at 25° C. for 2 hours, and filtered on a glass filter GF/C. After washing by 50 mM Tris buffer solution, pH7.4, the radioactivity on the glass filter was found. Non-specific linkages were measured in the presence of 10 microM thioperamide (product of SIGAM), and the 50% inhibition concentration (IC50 value) of the test compound with respect to specific N-α-methylhistamine linkages was found (Molecular Pharmacology, Vol. 55, p. 1101 (1999)).

SMILES strings stand for the structures. Where two headings read alike, the source gives them in different places.

T2 sequence (Q9Y5N1 whole entry): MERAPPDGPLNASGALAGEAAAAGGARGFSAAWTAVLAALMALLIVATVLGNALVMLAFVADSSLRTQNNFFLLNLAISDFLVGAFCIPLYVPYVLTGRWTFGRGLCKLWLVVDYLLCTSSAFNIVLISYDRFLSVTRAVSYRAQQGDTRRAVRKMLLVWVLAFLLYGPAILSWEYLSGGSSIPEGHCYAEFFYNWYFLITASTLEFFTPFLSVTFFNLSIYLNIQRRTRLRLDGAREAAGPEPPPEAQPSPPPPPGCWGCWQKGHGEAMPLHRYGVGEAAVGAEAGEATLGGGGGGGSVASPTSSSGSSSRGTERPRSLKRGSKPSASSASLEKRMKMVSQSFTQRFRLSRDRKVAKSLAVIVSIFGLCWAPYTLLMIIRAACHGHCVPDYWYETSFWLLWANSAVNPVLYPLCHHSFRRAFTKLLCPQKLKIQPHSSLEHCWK
T1 sequence (Q9QYN8 whole entry): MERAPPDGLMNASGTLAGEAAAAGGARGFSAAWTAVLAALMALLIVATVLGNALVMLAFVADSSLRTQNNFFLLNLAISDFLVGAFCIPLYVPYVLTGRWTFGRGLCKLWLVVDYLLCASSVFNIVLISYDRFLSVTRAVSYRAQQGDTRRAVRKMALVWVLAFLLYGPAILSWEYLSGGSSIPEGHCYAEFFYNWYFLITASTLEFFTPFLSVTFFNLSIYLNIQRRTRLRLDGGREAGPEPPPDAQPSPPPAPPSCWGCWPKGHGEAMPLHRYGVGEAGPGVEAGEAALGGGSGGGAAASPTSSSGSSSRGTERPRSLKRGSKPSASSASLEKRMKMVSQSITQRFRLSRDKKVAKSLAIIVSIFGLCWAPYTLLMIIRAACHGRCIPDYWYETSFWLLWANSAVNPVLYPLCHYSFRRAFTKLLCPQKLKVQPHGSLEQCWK

As for `Cc1nc2ncccc2c(=O)n1-c1ccc(OCCCN2CCC[C@H](C)C2)cc1.Cl`, the melting point fell in the range of 255 to 262 °C.
In the case of `CCc1nc2ncccc2c(=O)n1-c1ccc(OCCCN2CCC[C@H](C)C2)cc1.Cl`, the melting point was in the range of 245 to 252 °C.
Turning to `CCc1nc2ccccc2c(=O)n1-c1ccc(OCCCN2CCCCC2)cc1` [Example 1, 2-ethyl-3-{4-[3-(1-piperidinyl)propoxy]phenyl}-4(3H)-quinazolinone], the bioavailability in series [1] amounted to 60%. Besides, the half-life in series [1] (read-out: half-life in blood (converted)) is 6.3 h. For the same molecule, in series [2], the intracerebral concentration came to 3.16 nmol/g. In addition, the concentration at 2 h is 142 nM in series [2] (cerebrospinal fluid, read-out: cerebrospinal fluid concentration) and 2320 nM in series [2] (plasma, read-out: plasma concentration). In addition, the “increase in drinking water amount due to R-α-methylhistamine administered to the ventriculus tertius” value on histamine H3 receptor is given as “significantly suppressed”. For the same molecule, the IC50 in series [3] ([3H]N-α-methylhistamine, preparation from histamine H3 receptor expression cells, 50 mM Tris pH 7.4, 25° C., 2 hours, read-out: 50% inhibition concentration (IC50 value) with respect to specific N-α-methylhistamine linkages) was 15 nM. For the same molecule, in series [3] (summary in words of the binding test), the “binding of N-α-methylhistamine to the histamine H3 receptor” value is listed as “strongly prevented binding”.
In the case of `Cc1nc2cccc(F)c2c(=O)n1-c1ccc(OCCCN2CCCCC2)cc1` [Example 26, 5-fluoro-2-methyl-3-{4-[3-(1-piperidinyl)propoxy]phenyl}-4(3H)-quinazolinone], the melting point lay within 141 to 145 °C.
With `COc1ccc2nc(C)n(-c3ccc(OCCCN4CCCCC4)cc3)c(=O)c2c1` [Example 36, 6-methoxy-2-methyl-3-{4-[3-(1-piperidinyl)propoxy]phenyl}-4(3H)-quinazolinone], the melting point lay in the range of 136 to 138 °C.
Still for that read-out and setting: as for `Cc1nc2ccncc2c(=O)n1-c1ccc(OC2CCN(C3CCCC3)CC2)cc1` [Example 101, 3-{4-[(1-cyclopentyl-4-piperidinyl)oxy]phenyl}-2-methylpyrido[4,3-d]pyrimidin-4(3H)-one], the figure is 140 to 143 °C; as for `CCc1nc2ccncc2c(=O)n1-c1ccc(OC2CCN(C3CCC3)CC2)cc1` [Example 109, 3-{4-[(1-cyclobutyl-4-piperidinyl)oxy]phenyl}-2-ethylpyrido[4,3-d]pyrimidin-4(3H)-one], 186 to 189 °C.
`CCc1nc2ncccc2c(=O)n1-c1ccc(OC2CCN(C3CCC3)CC2)cc1` [Example 111, 3-{4-[(1-cyclobutyl-4-piperidinyl)oxy]phenyl}-2-ethylpyrido[2,3-d]pyrimidin-4(3H)-one] yielded a melting point of 146 to 148 °C.
Regarding `Cc1nc2cnccc2c(=O)n1-c1ccc(OC2CCN(C3CCC3)CC2)cc1` [Example 114, 3-{4-[(1-cyclobutyl-4-piperidinyl)oxy]phenyl}-2-methylpyrido[3,4-d]pyrimidin-4(3H)-one], the melting point lay in the range of 169 to 171 °C.
The molecule `COc1ccc2nc(C)n(-c3ccc(OCCCN4CCC[C@@H]4C)cc3)c(=O)c2c1` [Example 144, 6-methoxy-2-methyl-3-(4-{3-[(2S)-2-methylpyrrolidin-1-yl]propoxy}phenyl)-4(3H)-quinazolinone] had a melting point of 102 to 106 °C.
In turn, `COc1cccc2nc(C)n(-c3ccc(OCCCN4CCC[C@H](C)C4)cc3)c(=O)c12` [Example 164, 5-methoxy-2-methyl-3-(4-{3-[(3S)-3-methylpiperidin-1-yl]propoxy}phenyl)-4(3H)-quinazolinone] displayed a melting point of 144 to 146 °C.
In turn, `COc1ccc2c(=O)n(-c3ccc(OCCCN4CCC[C@H](C)C4)cc3)c(C)nc2c1` [Example 170, 7-methoxy-2-methyl-3-(4-{3-[(3S)-3-methyl-piperidin-1-yl]propoxy}phenyl)-4(3H)-quinazolinone] yielded a melting point of 94 to 96 °C.
The same measure, in the same setting: as for `COc1ccc2nc(C)n(-c3ccc(OCCCN4CCC[C@H]4C)cc3)c(=O)c2c1` [Example 172, 6-methoxy-2-methyl-3-(4-{3-[(2R)-2-methylpyrrolidin-1-yl]propoxy}phenyl)-4(3H)-quinazolinone], the figure is 106 to 108 °C; as for `COc1cc2c(=O)n(-c3ccc(OCCCN4CCCCC4)cc3)c(C)nc2cn1` [Example 199, 6-methoxy-2-methyl-3-[4-(3-piperidin-1-ylpropoxy)phenyl]pyrido[3,4-d]pyrimidin-4(3H)-one], 145 to 147 °C; as for `COc1cc2c(=O)n(-c3ccc(OCCCN4CCCC4)cc3)c(C)nc2cn1` [Example 200, 6-methoxy-2-methyl-3-[4-(3-pyrrolidin-1-ylpropoxy)phenyl]pyrido[3,4-d]-pyrimidin-4(3H)-one], 123 to 126 °C.
Same read-out and setting: in the case of `COc1ccc2nc(C)n(-c3ccc(OC4CCN(C5CCC5)CC4)cc3)c(=O)c2c1` [Example 228, 3-{4-[(1-cyclobutylpiperidin-4-yl)oxy]phenyl}-6-methoxy-2-methyl-4(3H)-quinazolinone] it was 171 to 173 °C; in that of `Cc1nc2cnc(F)cc2c(=O)n1-c1ccc(OC2CCN(C3CCC3)CC2)cc1` [Example 230, 3-{4-[(1-cyclobutyl-piperidin-4-yl)oxy]phenyl}-6-fluoro-2-methylpyrido[3,4-d]pyrimidin-4(3H)-one], 161 to 163 °C; in that of `Cc1nc2ccc(F)cc2c(=O)n1-c1ccc(OC2CCN(C3CCC3)CC2)cc1` [Example 232, 3-{4-[(1-cyclobutylpiperidin-4-yl)oxy]phenyl}-6-fluoro-2-methyl-4(3H)-quinazolinone], 122 to 125 °C.
The molecule `Cc1nc2cc(F)ccc2c(=O)n1-c1ccc(OC2CCN(C3CCC3)CC2)cc1` [Example 233, 3-{4-[(1-cyclobutylpiperidin-4-yl)oxy]phenyl}-7-fluoro-2-methyl-4(3H)-quinazolinone] showed a melting point of 163 to 166 °C.
As to `Cc1nc2c(F)cccc2c(=O)n1-c1ccc(OC2CCN(C3CCC3)CC2)cc1` [Example 242, 3-{4-[(1-cyclobutylpiperidin-4-yl)oxy]phenyl}-8-fluoro-2-methyl-4(3H)-quinazolinone], the melting point lay in the range of 177 to 179 °C.
Regarding `Cc1nc2cccc(F)c2c(=O)n1-c1ccc(OCCCN2CCC[C@H]2C)cc1` [Example 260, 5-fluoro-2-methyl-3-(4-{3-[(2R)-2-methylpyrrolidin-1-yl]propoxy}phenyl)-4(3H)-quinazolinone], the melting point fell in the range of 125 to 127 °C.
The molecule `Cc1nc2ccncc2c(=O)n1-c1ccc(OCCCN2CCC[C@H]2C)cc1` [Example 266, 2-methyl-3-(4-{3-[(2R)-2-methylpyrrolidin-1-yl]propoxy}phenyl)pyrido[4,3-d]pyrimidin-4(3H)-one] displayed a melting point of 238 to 250 °C.

The values are drawn from US8268842B2, “Fused ring 4-oxopyrimidine derivative” (MSD K.K., priority 2004, dated 2012).
